In ChEMBL document CHEMBL1782001, “Discovery of selective PDE4B inhibitors” (Bioorg Med Chem Lett, 2009):

Tests used:
[1] = biological target: 3',5'-cyclic-AMP phosphodiesterase 4B (Homo sapiens, UniProt Q07343); assay: Inhibition of human PDE4B1 incubated for 10 mins using cAMP and [3H]cAMP substrates
[2] = biological target: 3',5'-cyclic-AMP phosphodiesterase 4D (Homo sapiens, UniProt Q08499); assay: Inhibition of human PDE4D3 incubated for 10 mins using cAMP and [3H]cAMP substrates
Homo sapiens = species on record: Homo sapiens; assay: Selectivity ratio, ratio of IC50 for human PDE4D3 to IC50 for human PDE4B1
Cytochrome P450 3A4 = Cytochrome P450 3A4 (Homo sapiens, UniProt P08684); assay: Inhibition of CYP3A4; type: ADME
Cytochrome P450 3A4, sequence (P08684 whole entry): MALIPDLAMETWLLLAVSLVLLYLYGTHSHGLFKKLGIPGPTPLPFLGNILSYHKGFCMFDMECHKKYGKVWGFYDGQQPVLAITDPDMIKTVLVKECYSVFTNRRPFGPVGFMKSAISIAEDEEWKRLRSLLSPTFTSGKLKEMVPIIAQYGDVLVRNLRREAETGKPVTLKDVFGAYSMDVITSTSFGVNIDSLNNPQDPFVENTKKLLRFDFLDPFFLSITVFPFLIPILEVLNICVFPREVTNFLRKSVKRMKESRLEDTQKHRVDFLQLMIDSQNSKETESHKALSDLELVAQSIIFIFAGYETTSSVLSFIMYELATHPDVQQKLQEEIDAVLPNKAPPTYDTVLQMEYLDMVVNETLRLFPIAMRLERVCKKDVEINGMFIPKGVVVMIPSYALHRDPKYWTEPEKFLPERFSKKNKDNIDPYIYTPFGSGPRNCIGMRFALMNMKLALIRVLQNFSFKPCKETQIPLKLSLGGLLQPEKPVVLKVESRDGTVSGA

Mustela putorius furo [3] = assay: Toxicity in ferret assessed as induction of emesis at 200 mg/kg, po measured 6 hrs post dose; type: organism-based; design: dose 200 mg/kg, route oral; details: in vivo
Mus musculus = assay: Inhibition of LPS-induced TNFalpha production in po dosed mouse; type: functional; details: read-out: ID50 (the source's name)
[4] = AUC (0 to infinity) in mouse at 2 mg/kg, po; type: ADME, organism-based; design: time infinity, dose 2 mg/kg, route oral; details: plasma
[5] = Inhibition of PDE6
[6] = Inhibition of PDE1
Mustela putorius furo [7] = assay: Inhibition of […] in ferret assessed as inhibition of LPS-induced change in number of neutrophils in lung lavage at 12.5 mg/kg, po; type: functional
[8] = Oral bioavailability in mouse; type: ADME, organism-based; details: in vivo
[9] = Inhibition of PDE3
Mustela putorius furo [10] = assay: Inhibition of […] in ferret assessed as inhibition of LPS-induced change in number of neutrophils in lung lavage at 25 mg/kg, po; type: functional
Cytochrome P450 2C9 = Cytochrome P450 2C9 (Homo sapiens, UniProt P11712); assay: Inhibition of CYP2C9; type: ADME
Cytochrome P450 2C9, sequence (P11712 whole entry): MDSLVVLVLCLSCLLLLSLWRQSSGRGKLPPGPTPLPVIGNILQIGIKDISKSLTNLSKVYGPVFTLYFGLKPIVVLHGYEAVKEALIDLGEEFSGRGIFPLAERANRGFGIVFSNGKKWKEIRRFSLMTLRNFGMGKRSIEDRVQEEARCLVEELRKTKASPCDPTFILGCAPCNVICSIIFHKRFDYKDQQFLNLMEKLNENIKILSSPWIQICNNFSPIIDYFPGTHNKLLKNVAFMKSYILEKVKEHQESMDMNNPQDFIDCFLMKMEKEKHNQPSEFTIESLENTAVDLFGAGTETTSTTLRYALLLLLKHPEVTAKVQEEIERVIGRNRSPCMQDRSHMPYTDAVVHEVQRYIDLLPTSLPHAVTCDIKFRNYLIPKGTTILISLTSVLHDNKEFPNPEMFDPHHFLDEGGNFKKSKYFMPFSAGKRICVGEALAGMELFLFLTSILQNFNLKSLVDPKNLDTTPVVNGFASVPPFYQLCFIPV

[11] = Cmax in ferret at 2 mg/kg, po; type: ADME, organism-based, Mustela putorius furo; design: dose 2 mg/kg, route oral; details: in vivo
Cytochrome P450 1A2 = biological target: T1, Cytochrome P450 1A2 (Homo sapiens, UniProt P05177); assay: Inhibition of CYP1A2; type: ADME
T1 sequence (P05177 whole entry): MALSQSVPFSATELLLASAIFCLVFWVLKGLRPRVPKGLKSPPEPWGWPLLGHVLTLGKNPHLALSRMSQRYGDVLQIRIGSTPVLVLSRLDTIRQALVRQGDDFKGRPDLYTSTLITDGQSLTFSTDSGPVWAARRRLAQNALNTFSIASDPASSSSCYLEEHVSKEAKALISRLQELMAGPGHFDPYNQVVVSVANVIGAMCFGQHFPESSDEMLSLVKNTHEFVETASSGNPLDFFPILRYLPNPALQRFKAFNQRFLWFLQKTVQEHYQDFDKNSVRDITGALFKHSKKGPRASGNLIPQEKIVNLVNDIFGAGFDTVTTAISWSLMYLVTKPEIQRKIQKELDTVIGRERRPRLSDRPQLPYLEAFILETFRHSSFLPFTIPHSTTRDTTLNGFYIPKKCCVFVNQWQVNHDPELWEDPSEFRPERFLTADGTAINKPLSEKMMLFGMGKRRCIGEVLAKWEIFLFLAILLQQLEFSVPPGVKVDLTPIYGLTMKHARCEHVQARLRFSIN

Mustela putorius furo [12] = assay: Toxicity in ferret assessed as induction of emesis at 100 mg/kg, po measured 6 hrs post dose; type: organism-based; design: dose 100 mg/kg, route oral; details: in vivo
[13] = AUC (0 to infinity) in ferret at 2 mg/kg, po; type: ADME, organism-based, Mustela putorius furo; design: time infinity, dose 2 mg/kg, route oral; details: plasma
[14] = biological target: cGMP-specific 3',5'-cyclic phosphodiesterase (Homo sapiens, UniProt O76074); assay: Inhibition of PDE5
Cytochrome P450 2D6 = Cytochrome P450 2D6 (Homo sapiens, UniProt P10635); assay: Inhibition of CYP2D6; type: ADME
Cytochrome P450 2D6, sequence (P10635 whole entry): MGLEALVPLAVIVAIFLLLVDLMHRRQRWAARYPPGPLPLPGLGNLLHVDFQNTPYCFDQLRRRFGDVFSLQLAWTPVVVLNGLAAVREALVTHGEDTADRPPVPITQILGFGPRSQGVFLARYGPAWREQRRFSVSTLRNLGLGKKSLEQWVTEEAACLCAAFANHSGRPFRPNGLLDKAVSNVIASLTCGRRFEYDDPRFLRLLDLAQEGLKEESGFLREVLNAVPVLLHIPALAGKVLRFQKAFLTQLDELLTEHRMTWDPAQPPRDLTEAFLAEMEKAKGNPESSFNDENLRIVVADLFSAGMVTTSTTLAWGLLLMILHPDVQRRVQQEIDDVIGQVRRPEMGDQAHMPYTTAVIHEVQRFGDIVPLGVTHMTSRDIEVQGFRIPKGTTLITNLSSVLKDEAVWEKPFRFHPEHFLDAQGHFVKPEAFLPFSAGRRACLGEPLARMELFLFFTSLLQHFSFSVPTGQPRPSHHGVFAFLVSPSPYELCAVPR

[15] = Cmax in mouse at 2 mg/kg, po; type: ADME, organism-based; design: dose 2 mg/kg, route oral; details: in vivo
Mustela putorius furo [16] = assay: Toxicity in ferret assessed as induction of emesis at 10 mg/kg, po measured 6 hrs post dose; type: organism-based; design: dose 10 mg/kg, route oral; details: in vivo
Mustela putorius furo [17] = assay: Toxicity in ferret assessed as induction of emesis at 1 mg/kg, po measured 6 hrs post dose; type: organism-based; design: dose 1 mg/kg, route oral; details: in vivo
Mustela putorius furo [18] = assay: Inhibition of […] in ferret assessed as inhibition of LPS-induced change in number of neutrophils in lung lavage at 10 mg/kg, po; type: functional
Mustela putorius furo [19] = assay: Toxicity in ferret assessed as induction of emesis at 0.3 mg/kg, po measured 6 hrs post dose; type: organism-based; design: dose 0.3 mg/kg, route oral; details: in vivo

3',5'-cyclic-AMP phosphodiesterase 4B, sequence (Q07343 whole entry): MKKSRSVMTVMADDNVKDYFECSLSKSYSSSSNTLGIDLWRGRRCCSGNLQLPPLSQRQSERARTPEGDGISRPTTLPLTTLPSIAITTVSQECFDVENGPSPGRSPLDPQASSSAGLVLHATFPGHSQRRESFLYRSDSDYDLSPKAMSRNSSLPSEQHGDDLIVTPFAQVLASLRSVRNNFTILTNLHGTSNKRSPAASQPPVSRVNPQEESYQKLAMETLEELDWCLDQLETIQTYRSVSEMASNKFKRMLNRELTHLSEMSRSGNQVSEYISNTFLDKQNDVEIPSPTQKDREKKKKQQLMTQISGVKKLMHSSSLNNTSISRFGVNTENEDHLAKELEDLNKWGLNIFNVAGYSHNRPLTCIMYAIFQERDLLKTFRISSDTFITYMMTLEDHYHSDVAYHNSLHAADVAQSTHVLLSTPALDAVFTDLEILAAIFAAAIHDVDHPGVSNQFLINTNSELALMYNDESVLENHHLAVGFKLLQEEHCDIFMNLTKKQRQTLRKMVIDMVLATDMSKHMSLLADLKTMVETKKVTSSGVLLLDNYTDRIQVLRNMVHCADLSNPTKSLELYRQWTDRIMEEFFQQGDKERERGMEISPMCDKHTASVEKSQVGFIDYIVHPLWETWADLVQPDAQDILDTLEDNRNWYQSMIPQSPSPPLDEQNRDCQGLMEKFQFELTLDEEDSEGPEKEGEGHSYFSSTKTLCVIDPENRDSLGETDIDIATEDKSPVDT
3',5'-cyclic-AMP phosphodiesterase 4D, sequence (Q08499 whole entry): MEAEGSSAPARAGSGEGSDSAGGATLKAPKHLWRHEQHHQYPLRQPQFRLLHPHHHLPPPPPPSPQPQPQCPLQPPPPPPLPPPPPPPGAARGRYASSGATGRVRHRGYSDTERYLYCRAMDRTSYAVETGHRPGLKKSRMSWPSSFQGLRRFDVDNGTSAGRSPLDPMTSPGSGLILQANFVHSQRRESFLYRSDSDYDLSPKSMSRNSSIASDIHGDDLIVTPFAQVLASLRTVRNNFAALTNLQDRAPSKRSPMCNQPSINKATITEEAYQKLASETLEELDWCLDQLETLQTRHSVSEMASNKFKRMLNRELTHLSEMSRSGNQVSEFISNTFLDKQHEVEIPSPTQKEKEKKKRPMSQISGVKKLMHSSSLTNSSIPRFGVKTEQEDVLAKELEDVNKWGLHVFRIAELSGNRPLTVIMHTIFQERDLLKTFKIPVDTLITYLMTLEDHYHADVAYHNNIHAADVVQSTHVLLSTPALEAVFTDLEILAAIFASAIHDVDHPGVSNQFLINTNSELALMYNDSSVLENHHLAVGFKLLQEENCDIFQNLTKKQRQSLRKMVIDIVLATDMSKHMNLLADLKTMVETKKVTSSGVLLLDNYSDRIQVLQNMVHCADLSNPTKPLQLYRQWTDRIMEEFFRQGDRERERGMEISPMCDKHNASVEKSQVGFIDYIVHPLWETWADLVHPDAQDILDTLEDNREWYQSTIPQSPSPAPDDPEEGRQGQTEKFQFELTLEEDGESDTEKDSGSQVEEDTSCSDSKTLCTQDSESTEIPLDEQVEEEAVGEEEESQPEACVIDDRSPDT

## C=CCc1c(C)nc(-c2ccc(OC)s2)nc1Nc1ccc(CC(=O)O)cc1
[1]
  IC50: 190 nM
[2]
  IC50: 5300 nM
Homo sapiens
  Ratio IC50: 29

## C=CCc1c(C)nc(-c2cnccn2)nc1Nc1ccc(C(=O)O)cc1
[1]
  IC50: 860 nM
[2]
  IC50: 3000 nM
Homo sapiens
  Ratio IC50: 3.5

## Cc1nc(-c2ccccc2)nc(Nc2ccc(C(=O)O)cc2)c1CN
[1]
  IC50: > 1000 nM

## Cc1nc(-c2ccccc2)nc(Nc2ccc(C(=O)O)cc2)c1C#N
[1]
  IC50: 120 nM
[2]
  IC50: 1500 nM
Homo sapiens
  Ratio IC50: 12

## CCc1c(C)nc(-c2ccc(Cl)s2)nc1Nc1ccc(CC(=O)O)cc1
[1]
  IC50: 15 nM
Cytochrome P450 3A4
  IC50: > 10 µM
Mustela putorius furo [3]
  Activity: Toxic
Mus musculus
  ED50: 14 mg/kg
[4]
  AUC(0-inf): 52300 ng·h/mL
[5]
  IC50: > 2000 nM
[6]
  IC50: > 2000 nM
Mustela putorius furo [7]
  inhibition in vivo at 12.5 mg/kg: 44%
[8]
  bioavailability: 85%
[9]
  IC50: > 2000 nM
Mustela putorius furo [10]
  inhibition in vivo at 25 mg/kg: 46%
Cytochrome P450 2C9
  IC50: > 10 µM
[11]
  Cmax: 4500 ng/mL
Cytochrome P450 1A2
  IC50: > 10 µM
Mustela putorius furo [12]
  Activity: Non-toxic
[2]
  IC50: 1700 nM
[13]
  AUC(0-inf): 33.5 µg·h/mL
[14]
  IC50: > 2000 nM
Homo sapiens
  Ratio IC50: 114
Cytochrome P450 2D6
  IC50: > 10 µM
[15]
  Cmax: 8700 ng/mL

## COc1ccc([C@]2(C#N)CC[C@@H](C(=O)O)CC2)cc1OC1CCCC1 [CILOMILAST]
Mustela putorius furo [16]
  Activity: Toxic
Mus musculus
  ED50: 2.2 mg/kg
Mustela putorius furo [17]
  Activity: Toxic
Mustela putorius furo [18]
  inhibition in vivo at 10 mg/kg: 35%
Mustela putorius furo [19]
  Activity: Non-toxic

## C=CCc1c(C)nc(-c2cccc(C)c2)nc1Nc1ccc(C(=O)O)cc1
[1]
  IC50: 210 nM
[2]
  IC50: 1500 nM
Homo sapiens
  Ratio IC50: 6.9

## Cc1nc(-c2ccccc2)nc(Nc2ccc(C(=O)O)cc2)c1C(C)C
[1]
  IC50: > 1000 nM

## CCCCc1c(C)nc(-c2ccccc2)nc1Nc1ccc(C(=O)O)cc1
[1]
  IC50: > 1000 nM

## C=CCc1c(C)nc(-c2ccc(OC)cc2)nc1Nc1ccc(CC(=O)O)cc1
[1]
  IC50: 600 nM
[2]
  IC50: 4800 nM
Homo sapiens
  Ratio IC50: 8

## CCc1c(C)nc(-c2cc(Br)c(C)s2)nc1Nc1ccc(CC(=O)O)cc1
[1]
  IC50: 6.8 nM
[2]
  IC50: 2900 nM
Homo sapiens
  Ratio IC50: 420

## C=CCc1c(C)nc(-c2ccsc2)nc1Nc1ccc(C(=O)O)cc1
[1]
  IC50: 68 nM
[2]
  IC50: 990 nM
Homo sapiens
  Ratio IC50: 15

## Cc1nc(-c2ccccc2)nc(Nc2ccc(C(=O)O)cc2)c1C
[1]
  IC50: 430 nM
[2]
  IC50: 3400 nM
Homo sapiens
  Ratio IC50: 7.9

## C=CCc1c(C)nc(-c2ccccc2)nc1Nc1ccc(C(=O)O)cc1
[1]
  IC50: 190 nM
[2]
  IC50: 1900 nM
Homo sapiens
  Ratio IC50: 9.7

## C=CCc1c(CCC)nc(-c2ccccc2)nc1Nc1ccc(C(=O)O)cc1
[1]
  IC50: 690 nM
[2]
  IC50: 2400 nM
Homo sapiens
  Ratio IC50: 3.4

## Cc1nc(-c2ccccc2)nc(Nc2ccc(C(=O)O)cc2)c1Cc1ccccc1
[1]
  IC50: > 1000 nM

## CCCc1c(C)nc(-c2ccccc2)nc1Nc1ccc(C(=O)O)cc1
[1]
  IC50: 1300 nM
[2]
  IC50: 7600 nM
Homo sapiens
  Ratio IC50: 5.6

## C=CCc1c(C)nc(-c2cccs2)nc1Nc1ccc(C(=O)O)cc1
[1]
  IC50: 120 nM
[2]
  IC50: 1300 nM
Homo sapiens
  Ratio IC50: 11

## Cc1nc(-c2ccccc2)nc(Nc2ccc(C(=O)O)cc2)c1CO
[1]
  IC50: 540 nM
[2]
  IC50: 8000 nM
Homo sapiens
  Ratio IC50: 15

## C=CCc1c(C)nc(-c2ccccc2)nc1Nc1ccc(CC(=O)O)cc1
[1]
  IC50: 1800 nM
[2]
  IC50: > 10000 nM

## C=CCc1c(C)nc(-c2ccc(C)cc2)nc1Nc1ccc(CC(=O)O)cc1
[1]
  IC50: 940 nM
[2]
  IC50: 11000 nM
Homo sapiens
  Ratio IC50: 12

## C=CCc1c(C)nc(-c2cccc(C)c2)nc1Nc1ccc(CC(=O)O)cc1
[1]
  IC50: 1200 nM
[2]
  IC50: 9900 nM
Homo sapiens
  Ratio IC50: 8

## C=CCc1c(C)nc(-c2csc(C)n2)nc1Nc1ccc(C(=O)O)cc1
[1]
  IC50: 2800 nM
[2]
  IC50: 12000 nM
Homo sapiens
  Ratio IC50: 4.2

## C=CCc1c(C)nc(-c2ccc(C)s2)nc1Nc1ccc(CC(=O)O)cc1
[1]
  IC50: 320 nM
[2]
  IC50: 8800 nM
Homo sapiens
  Ratio IC50: 28

## C=CCc1c(C)nc(-c2ccc(OC)s2)nc1Nc1ccc(C(=O)O)cc1
[1]
  IC50: 78 nM
[2]
  IC50: 760 nM
Homo sapiens
  Ratio IC50: 9.8

## CCc1c(C)nc(-c2ccc(F)s2)nc1Nc1ccc(CC(=O)O)cc1F
[1]
  IC50: 15 nM
Cytochrome P450 3A4
  IC50: > 10 µM
[4]
  AUC(0-inf): 21900 ng·h/mL
[8]
  bioavailability: 73%
Cytochrome P450 2C9
  IC50: > 10 µM
[11]
  Cmax: 14800 ng/mL
Cytochrome P450 1A2
  IC50: > 10 µM
[2]
  IC50: 3100 nM
[13]
  AUC(0-inf): 341 µg·h/mL
Homo sapiens
  Ratio IC50: 205
Cytochrome P450 2D6
  IC50: > 10 µM
[15]
  Cmax: 10900 ng/mL

## C=CCc1c(Nc2ccc(C(=O)O)cc2)nc(-c2ccccc2)nc1C(C)C
[1]
  IC50: > 1000 nM

## C=CCc1c(C)nc(-c2ccc(C)cc2)nc1Nc1ccc(C(=O)O)cc1
[1]
  IC50: 220 nM
[2]
  IC50: 2800 nM
Homo sapiens
  Ratio IC50: 13

## C=CCc1c(C)nc(-c2ccccn2)nc1Nc1ccc(C(=O)O)cc1
[1]
  IC50: 3700 nM
[2]
  IC50: 15000 nM
Homo sapiens
  Ratio IC50: 4.1

## CCc1c(C)nc(-c2ccc(SC)s2)nc1Nc1ccc(CC(=O)O)cc1
[1]
  IC50: 34 nM
[2]
  IC50: 1500 nM
Homo sapiens
  Ratio IC50: 43

## CCc1c(C)nc(-c2ccc(Br)s2)nc1Nc1ccc(CC(=O)O)cc1
[1]
  IC50: 19 nM
[2]
  IC50: 1600 nM
Homo sapiens
  Ratio IC50: 87

## C=CCc1c(C)nc(-c2ccc(OC)cc2)nc1Nc1ccc(C(=O)O)cc1
[1]
  IC50: 220 nM
[2]
  IC50: 2000 nM
Homo sapiens
  Ratio IC50: 8.9

## CCc1c(C)nc(-c2ccccc2)nc1Nc1ccc(C(=O)O)cc1
[1]
  IC50: 140 nM
[2]
  IC50: 2100 nM
Homo sapiens
  Ratio IC50: 15

## Cc1nc(-c2ccccc2)nc(Nc2ccc(C(=O)O)cc2)c1C=O
[1]
  IC50: 300 nM
[2]
  IC50: 1500 nM
Homo sapiens
  Ratio IC50: 5.2

## C=CCc1c(C)nc(-c2ccc(C)s2)nc1Nc1ccc(C(=O)O)cc1
[1]
  IC50: 150 nM
[2]
  IC50: 1300 nM
Homo sapiens
  Ratio IC50: 8.6

## C=CCc1c(CC)nc(-c2ccccc2)nc1Nc1ccc(C(=O)O)cc1
[1]
  IC50: 34 nM
[2]
  IC50: 82 nM
Homo sapiens
  Ratio IC50: 2.4
